Laboratory results taken from patent US10428080B2, “TBK/IKK inhibitor compounds and uses thereof” (Merck Patent GmbH, priority 2015, dated 2019).
Structures can show the parent of a compound that is named as a salt. Where two headings read alike, the source gives them in different places.

Legend:
TBK1 = biological target: T1, TBK1 (Homo sapiens, UniProt Q9UHD2); experiment: TBK Biochemical Assay; settings: read-out: TBK1 IC50
T1 sequence (Q9UHD2 1-729): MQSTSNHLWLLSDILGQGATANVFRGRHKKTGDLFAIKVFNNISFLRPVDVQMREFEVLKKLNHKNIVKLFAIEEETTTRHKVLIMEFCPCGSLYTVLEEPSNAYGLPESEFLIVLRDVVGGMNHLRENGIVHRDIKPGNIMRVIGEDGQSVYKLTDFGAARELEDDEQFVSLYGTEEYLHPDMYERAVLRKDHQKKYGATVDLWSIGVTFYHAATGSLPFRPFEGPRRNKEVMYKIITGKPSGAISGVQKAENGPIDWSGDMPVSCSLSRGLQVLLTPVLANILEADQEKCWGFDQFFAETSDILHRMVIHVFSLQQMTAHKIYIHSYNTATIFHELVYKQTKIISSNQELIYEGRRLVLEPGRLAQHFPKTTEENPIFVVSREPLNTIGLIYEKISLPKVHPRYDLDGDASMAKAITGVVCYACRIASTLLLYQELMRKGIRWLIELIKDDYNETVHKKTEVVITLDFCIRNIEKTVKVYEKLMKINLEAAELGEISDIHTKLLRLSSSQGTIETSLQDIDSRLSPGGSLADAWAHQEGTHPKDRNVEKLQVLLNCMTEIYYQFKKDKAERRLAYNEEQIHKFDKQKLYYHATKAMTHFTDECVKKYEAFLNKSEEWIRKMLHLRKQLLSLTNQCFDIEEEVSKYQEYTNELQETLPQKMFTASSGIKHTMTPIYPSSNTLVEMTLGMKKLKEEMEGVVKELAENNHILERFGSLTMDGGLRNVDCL
Procedure, shortened: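 TBK1 enzyme and substrate incubated with compounds (10-point 1:4 dilution, top 30 uM final, 1% DMSO) for 90 min at 25° C, then stopped. Substrate/product peaks read by microfluidic mobility-shift (Caliper LabChip); 10 uM staurosporine as full-inhibition control.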

IKKε = biological target: T2, IKKε (Homo sapiens, UniProt Q14164); experiment: IKKe Biochemical Assay; settings: read-out: IKKε IC50
T2 sequence (Q14164 1-716): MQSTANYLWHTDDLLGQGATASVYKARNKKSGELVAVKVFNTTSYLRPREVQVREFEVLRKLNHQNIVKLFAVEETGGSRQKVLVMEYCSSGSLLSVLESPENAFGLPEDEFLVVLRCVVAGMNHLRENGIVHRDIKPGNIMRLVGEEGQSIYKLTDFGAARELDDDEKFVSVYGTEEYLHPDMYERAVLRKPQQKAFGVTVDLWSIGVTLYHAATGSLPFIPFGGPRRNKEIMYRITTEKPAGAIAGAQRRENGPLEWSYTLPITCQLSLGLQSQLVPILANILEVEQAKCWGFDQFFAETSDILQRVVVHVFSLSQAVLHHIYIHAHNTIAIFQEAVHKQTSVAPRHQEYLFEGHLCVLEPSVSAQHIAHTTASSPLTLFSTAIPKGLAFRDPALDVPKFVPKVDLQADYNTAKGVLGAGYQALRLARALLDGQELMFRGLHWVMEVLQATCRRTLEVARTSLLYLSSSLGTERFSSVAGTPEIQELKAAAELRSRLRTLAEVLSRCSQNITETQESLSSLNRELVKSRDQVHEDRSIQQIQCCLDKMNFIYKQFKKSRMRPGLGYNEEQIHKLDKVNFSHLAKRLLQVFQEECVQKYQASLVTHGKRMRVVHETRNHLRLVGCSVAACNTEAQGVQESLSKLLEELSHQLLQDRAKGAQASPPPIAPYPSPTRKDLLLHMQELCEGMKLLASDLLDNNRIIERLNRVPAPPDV
Procedure, shortened: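 Recombinant IKKε and substrate were incubated with compound (10-point 1:4 series, top 30 uM final, 1% DMSO) for 90 min at 25° C, then stopped. Substrate-to-product conversion was read by LabChip microfluidic mobility shift; 10 uM staurosporine served as full-inhibition wells.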

[1] = tested on: phosphorylation of the IRF-3 protein in MDA-MB-468 cells; experiment: pIRF3 immunocytochemistry cell based assay
Procedure, shortened: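 MDA-MB-468 cells got compounds (10-point, 3-fold from 10 uM) for 1 h at 37 °C, then 10 ug/ml Poly(I:C) for 2 h. Fixed, permeabilized cells were immunostained for pIRF3 with AlexaFluor488 and counterstained with PI. % phosphorylation was read by laser scanning cytometry, and IC50 curves were fitted.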

[2] = Homo sapiens, MDA-MB-468 cells, Poly(I:C) stimulation, read-out: pIRF3 IC50

| Structure (SMILES) | IC50 (TBK1) [nM] | IC50 (IKKε) [nM] | IC50 [1, 2] [nM] | IC50 ([1]; MDA-MB-468 cells, Poly(I:C) stimulation, read-out: pIRF3 IC50) [nM] | IC50 ([1]; Homo sapiens, MDA-MB-468, read-out: pIRF3 IC50) [nM] |
| --- | --- | --- | --- | --- | --- |
| N#Cc1cc(-c2ccnc3cc(-c4ccc(C(=O)N5CCC(F)(F)C5)cc4)oc23)ccc1OC1CCOCC1 [Compound 148, 5-{2-[4-(3,3-Difluoro-pyrrolidine-1-carbonyl)-phenyl]-furo[3,2-b]pyridin-7-yl}-2-(tetrahydro-pyran-4-yloxy)-benzonitrile] | < 100 | < 100 | 1000 to 5000 |  |  |
| COc1cc(C(=O)N(C)C)ccc1-c1cc2nccc(-c3ccc(OC4CCN(C)CC4)c(C#N)c3)c2o1 [Compound 150, 4-{7-[3-Cyano-4-(1-methyl-piperidin-4-yloxy)-phenyl]-furo[3,2-b]pyridin-2-yl}-3-methoxy-N,N-dimethyl-benzamide] | < 100 | < 100 | 100 to 1000 |  |  |
| CN(C)C(=O)c1ccc(-c2cc3nccc(-c4ccc(OC5CC(CO)(CCl)C5)c(C#N)c4)c3o2)cc1 (stereo not drawn) [Compound 168, 4-{7-[4-(3-Chloromethyl-3-hydroxymethyl-cyclobutoxy)-3-cyano-phenyl]-furo[3,2-b]pyridin-2-yl}-N,N-dimethyl-benzamide] | 100 to 1000 | 100 to 1000 | 100 to 1000 |  |  |
| COc1cc(C(=O)N(C)C)cnc1-c1cc2nccc(-c3ccc(NC4CCN(C)C4)c(C#N)c3)c2o1 (stereo not drawn) [Compound 433, 6-(7-[3-cyano-4-[(1-methylpyrrolidin-3-yl)amino]phenyl]furo[3,2-b]pyridin-2-yl)-5-methoxy-N,N-dimethylpyridine-3-carboxamide] | < 100 | < 100 | < 100 |  |  |
| COc1cc(C(=O)N(C)C)ccc1-c1cc2nccc(-c3ccc(OC4CCOC5(CC5)C4)c(C#N)c3)c2o1 (stereo not drawn) [Compound 290, 4-[7-(3-cyano-4-[4-oxaspiro[2.5]octan-7-yloxy]phenyl)furo[3,2-b]pyridin-2-yl]-3-methoxy-N,N-dimethylbenzamide] | < 100 | < 100 | 100 to 1000 |  |  |
| COc1cc(C(=O)N(C)C)cnc1-c1cc2ncc(OC)c(-c3ccc(OC4CCOCC4)c(C#N)n3)c2o1 [Compound 338, 6-[7-[6-cyano-5-(oxan-4-yloxy)pyridin-2-yl]-6-methoxyfuro[3,2-b]pyridin-2-yl]-5-methoxy-N,N-dimethylpyridine-3-carboxamide hydrochloride] | 100 to 1000 | 100 to 1000 | 1000 to 5000 |  |  |
| CC1(O)CN(C(=O)c2ccc(-c3cc4nccc(-c5ccc(OC6CCOCC6)c(C#N)c5)c4o3)cc2)C1 [Compound 124, 5-{2-[4-(3-Hydroxy-3-methyl-azetidine-1-carbonyl)-phenyl]-furo[3,2-b]pyridin-7-yl}-2-(tetrahydro-pyran-4-yloxy)-benzonitrile] | < 100 | < 100 | 1000 to 5000 |  |  |
| COc1cc(C(=O)N(C)CCS(C)(=O)=O)ccc1-c1cc2nccc(-c3ccc(OC4CCOCC4)c(C#N)c3)c2o1 [Compound 483, 4-{7-[3-Cyano-4-(tetrahydro-pyran-4-yloxy)-phenyl]-furo[3,2-b]pyridin-2-yl}-N-(2-methanesulfonyl-ethyl)-3-methoxy-N-methyl-benzamide] | < 100 | < 100 | < 100 |  |  |
| COc1cc(C(=O)N(C)C)cnc1-c1cc2nccc(-c3ccc(N4CCC(F)C4)c(C#N)n3)c2o1 (stereo not drawn) [Compound 488, 2-{7-[6-Cyano-6-5-(3-fluoro-pyrrolidin-1-yl)-pyridin-3-yl]-furo[3,2-b]pyridin-2-yl}-5-methoxy-N,N-dimethyl-nicotinamide] | < 100 | < 100 | 100 to 1000 |  |  |
| CN(C)C(=O)c1ccc(-c2cc3nccc(-c4ccc(OC5CCOCC5F)c(C#N)c4)c3o2)cc1 (stereo not drawn) [Compound 129] | < 100 | < 100 | 100 to 1000 |  |  |
| COc1cc(C(=O)N(C)C)ncc1-c1cc2nccc(-c3ccc(OC4CCNC4)c(C#N)c3)c2o1 (stereo not drawn) [Compound 429, 5-[7-[3-cyano-4-(pyrrolidin-3-yloxy)phenyl]furo[3,2-b]pyridin-2-yl]-4-methoxy-N,N-dimethylpyridine-2-carboxamide] | < 100 | < 100 | 100 to 1000 |  |  |
| COc1cc(C(=O)N(C)C)ncc1-c1cc2nccc(-c3ccc(OC4CCN(C(C)C)C4)c(C#N)c3)c2o1 (stereo not drawn) [Compound 428, 5-[7-(3-cyano-4-[[1-(propan-2-yl)pyrrolidin-3-yl]oxy]phenyl)furo[3,2-b]pyridin-2-yl]-4-methoxy-N,N-dimethylpyridine-2-carboxamide] | 1000 to 5000 | 1000 to 5000 | 100 to 1000 |  |  |
| COc1cc(C(=O)N(C)C)ncc1-c1cc2nccc(-c3ccc(OC4CCNCC4(F)F)c(C#N)c3)c2o1 (stereo not drawn) [Compound 418, 5-(7-[3-cyano-4-[(3,3-difluoropiperidin-4-yl)oxy]phenyl]furo[3,2-b]pyridin-2-yl)-4-methoxy-N,N-dimethylpyridine-2-carboxamide hydrochloride] | < 100 | < 100 | 100 to 1000 |  |  |
| COc1cc(C(=O)N[C@H]2[C@@H]3C[C@H]2CN(C)C3)ccc1-c1cc2nccc(-c3ccc(OC4CCOCC4)c(C#N)c3)c2o1 (single isomer, unassigned) [Compound 366] | < 100 | < 100 |  | 100 to 1000 |  |
| COc1cc(C(=O)NC2CN3CCC2CC3)ccc1-c1cc2nccc(-c3ccc(N4CC[C@@H](F)C4)c(C#N)c3)c2o1 (stereo partly drawn) [Compound 146, N-(1-Aza-bicyclo[2.2.2]oct-3-yl)-4-{7-[3-cyano-4-((R)-3-fluoro-pyrrolidin-1-yl)-phenyl]-furo[3,2-b]pyridin-2-yl}-3-methoxy-benzamide] | < 100 | < 100 | 100 to 1000 |  |  |
| N#Cc1cc(-c2ccnc3cc(-c4ccc(C(=O)N5CCN(C6CC6)CC5)cc4)oc23)ccc1OC1CCOCC1 [Compound 133, 5-{2-[4-(4-Cyclopropyl-piperazine-1-carbonyl)-phenyl]-furo[3,2-b]pyridin-7-yl}-2-(tetrahydro-pyran-4-yloxy)-benzonitrile] | < 100 | < 100 | 1000 to 5000 |  |  |
| COc1cc(C(=O)N[C@@H]2CN3CCC2CC3)ncc1-c1cc2nccc(-c3ccc(N4CC[C@@H](F)C4)c(C#N)c3)c2o1 [Compound 445, 5-{7-[3-Cyano-4-((R)-3-fluoro-pyrrolidin-1-yl)-phenyl]-furo[3,2-b]pyridin-2-yl}-4-methoxy-pyridine-2-carboxylic acid (1-aza-bicyclo[2.20.2]oct-3-yl)-amide] | < 100 | < 100 | < 100 |  |  |
| COc1cc(C(=O)NCCN2CCC2)ccc1-c1cc2nccc(-c3ccc(OC4CCOCC4)c(C#N)c3)c2o1 [Compound 477, N-(2-Azetidin-1-yl-ethyl)-4-{7-[3-cyano-4-(tetrahydro-pyran-4-yloxy)-phenyl]-furo[3,2-b]pyridin-2-yl}-3-methoxy-benzamide] | < 100 | < 100 | 100 to 1000 |  |  |
| COc1cc(C(=O)NC2CN(CC(C)C)C2)ccc1-c1cc2nccc(-c3ccc(OC4CCOCC4)c(C#N)c3)c2o1 [Compound 355, 4-[7-[3-cyano-4-(oxan-4-yloxy)phenyl]furo[3,2-b]pyridin-2-yl]-3-methoxy-N-[1-(2-methylpropyl)azetidin-3-yl]benzamide] | < 100 | < 100 |  |  | 100 to 1000 |
